This is an account of results in publication PMC12388504, “Antiparasitic Effect of Polyphenols and Terpenes from Natural Products Against Trypanosoma cruzi and Leishmania mexicana” (Metabolites, 2025).

SMILES strings stand for the structures. Like-named read-outs stand apart in the source and are kept apart here.

Data set [1] relates to T. cruzi epimastigotes NINOA strain. Nature of the data set: Anti-Trypanosoma cruzi activity, epimastigotes NINOA strain (MTT). The data set is classed as cell-based. The conditions noted are these: for IC50: 48 h, read-out: T. cruzi IC50 NINOA. The method, then:
(§1) Epimastigotes from A1 and the NINOA strains were used to evaluate the trypanocidal activity. Both strains were maintained in liver infusion tryptose (LIT) medium, supplemented with 10% heat-inactivated FBS and 100 U/mL of penicillin plus 100 μg/mL of streptomycin. They were preserved by transferring 1 × 10^6 parasites/mL into a new culture medium every week. […] All compounds were initially prepared at 10 mg/mL, using dimethyl sulfoxide (DMSO) 0.2% as diluent. […] T. cruzi epimastigotes (1 × 10^6/well) were cultured in 96-well microliter plates and incubated for 48 h at 28 °C with the drugs at different concentrations in a final volume of 200 μL. DMSO 0.2% was included as a negative control. […] All assays were carried out in triplicate. The IC50 values were determined by Probit analysis.

Data set [2] concerns T. cruzi epimastigotes A1 strain. In words: Anti-Trypanosoma cruzi activity, epimastigotes A1 strain (MTT). The data set is classed as cell-based. The conditions noted are these: for IC50: 48 h. The protocol: as §1
The subject of data set [3] is L. mexicana promastigotes MNYC/BZ/62/M379 (M379) strain. Nature of the data set: Anti-Leishmania mexicana activity, promastigotes M379 reference strain (MTT). The data set is classed as cell-based. The conditions noted are these: for IC50: 48 h, read-out: L. mexicana IC50 M379. The protocol: (§2) The IC50 was determined using the Probit statistical tool. Each sample was assayed in triplicate in three independent experiments.

Data set [4] concerns L. mexicana promastigotes FCQEPS native isolate. In words: Anti-Leishmania mexicana activity, promastigotes FCQEPS native isolate (MTT). The data set is classed as cell-based. The conditions noted are these: 48 h, read-out: L. mexicana IC50 FCQEPS. The protocol: as §2
The nature of data set [5]: Cytotoxic analysis against J774.2 macrophages (MTT). Particulars: mouse. The protocol:
(§3) The assay was performed on mouse macrophages from the J774.2 cell line that were cultured in RPMI medium supplemented with 10% SFB, […] penicillin, […] streptomycin, and glutamine (2 mM) at 37 °C and in a 5% CO2 atmosphere. The medium was replaced at 2–3-day intervals. […] Cells in the presence of the maximum concentration of DMSO (0.2%) were included as a negative control; the metabolic activity of the cells was determined following the MTT method. The percentage of cell viability was calculated, and the half-maximal cytotoxic concentration (CC50) was determined by Probit analysis. Three independent assays were performed in triplicate each.

Data set [6] deals with J774.2 macrophage cell line. The description is as above. Particulars: for cytotoxicity (in words): J774.2 macrophages. The protocol:
as §3

The next data set deals with T. cruzi. The conditions noted are these: cited from earlier work.
For data set [7], the system named is Tulahuén strain of T. cruzi. Details: method as in PMID 35698116. The conditions noted are these: in words; cited from earlier work.
[8] abbreviates: Trypanosoma cruzi, epimastigotes, NINOA strain, MTT.
The mark [9] stands for this setting: Trypanosoma cruzi, epimastigotes, A1 strain, MTT, read-out: T. cruzi IC50 A1.
The mark [10] stands for this setting: Leishmania mexicana, promastigotes, M379 strain, MTT.
[11] abbreviates: Leishmania mexicana, promastigotes, FCQEPS native isolate, MTT.
[12] abbreviates: Trypanosoma cruzi, read-out: T. cruzi IC50 A1, epimastigotes, A1 strain, 48 h, MTT.
Setting [13] is: promastigotes, FCQEPS native isolate, MTT.

In general, IC50 refers to the concentration that inhibits the measured activity by half. A word on the CC50: it is the concentration at which the toxic effect on the cells reaches its halfway point. Regarding `OCCc1ccccc1` [Compound 7, phenethyl alcohol], the IC50 in data set [1] (setting [8]) is 48.24 ± 0.3 µM; in data set [2] (setting [9]), above 200 µM; in data set [3] (setting [10]), 21.7 ± 1.7 µM; in data set [4] (setting [11]), 42.24 ± 0.1 µM. Besides, in data set [5] (J774.2 macrophage cells), it took 89.6 µM to reach half-maximal cytotoxicity (CC50 at 48 h). Further, the “cytotoxicity (in words)” value in data set [6] was “high cytotoxicity”.
Regarding `O=C(Cn1ccnc1[N+](=O)[O-])NCc1ccccc1` [Bzn, Benznidazole, reference compound], the IC50 in data set [1] (setting [8]) is 39.08 ± 0.1 µM; in data set [2] (setting [9]), 30.3 ± 0.03 µM.
For `CC(C)=CCCC(C)CCO` (stereo not drawn) [Compound 11, β-citronellol], the IC50 in data set [1] (setting [8]) was 53.6 ± 3.3 µM; in data set [2] (setting [9]), 21.54 ± 0.2 µM; in data set [3] (setting [10]) it was 71 ± 1 µM; in data set [4] (setting [11]), above 200 µM. Further, the CC50 at 48 h in data set [5] (J774.2 macrophage cells) was above 200 µM.
Consider `CC(C)=CCO` [Compound 10, prenol], for which the IC50 in data set [1] (setting [8]) is 27.3 ± 1 µM; in data set [2] (setting [9]), above 200 µM; in data set [3] (setting [10]), above 200 µM; in data set [4] (setting [11]), above 200 µM. In data set [3] (promastigotes, M379 strain), the “leishmanicidal activity M379 strain (in words)” value is reported as “did not have leishmanicidal activity”. This compound also gave a CC50 at 48 h in data set [5] (J774.2 macrophage cells) above 200 µM.
As for `CC(C)=CCC/C(C)=C/CO` [Compound 12, geraniol], the IC50 in data set [1] (setting [8]) was 41 ± 1.2 µM; in data set [2] (setting [9]) it was 125 ± 5.5 µM; in data set [3] (setting [10]), 57 ± 5.1 µM; in data set [4] (setting [11]) it was above 200 µM. The same compound displayed a CC50 at 48 h in data set [5] above 200 µM.
For the compound `COc1ccc(CCO)cc1` [Compound 8, 4-methoxyphenethyl alcohol], the IC50 in data set [1] (setting [8]) was above 200 µM; in data set [2] (setting [9]), above 200 µM; in data set [3] (setting [10]), 52.08 ± 0.5 µM; in data set [4] (setting [11]), above 200 µM. For the same compound, the “trypanocidal activity NINOA strain (in words)” value in data set [1] (epimastigotes, NINOA strain) is reported as “no biological activity”. The compound also had a half-maximal cytotoxic concentration (CC50) at 48 h in data set [5] (J774.2 macrophage cells) above 200 µM.
`OCc1ccc2c(c1)OCO2` [Compound 6, piperonyl alcohol]: the IC50 in data set [1] (Trypanosoma cruzi) was above 200 µM; in data set [2] (setting [12]), above 200 µM; in data set [3] (Leishmania mexicana) it was 23.61 ± 0.2 µM; in data set [4] (Leishmania mexicana), 49.11 ± 0.1 µM. Moreover, the cytotoxic concentration (CC50) at 48 h in data set [5] is 62.2 ± 3.2 µM.
For the compound `CC1=CC[C@@H](C(C)(C)O)CC1` [Compound 16, α-terpineol], the IC50 in data set [1] (setting [8]) was above 200 µM; in data set [2] (setting [9]) it was 14 ± 0.2 µM; in data set [3] (setting [10]), 14 ± 0.2 µM; in data set [4] (setting [11]), 75.57 ± 0.03 µM. In addition, the CC50 at 48 h in data set [5] was determined as 63.4 ± 0.9 µM.
For the compound `CC1CCC(C(C)C)C(O)C1` (racemic) [dl-menthol], the IC50 in the data set on T. cruzi (dl-menthol) was 173 µM.
`OCC=Cc1ccccc1` [Compound 9, cinnamyl alcohol]: the IC50 in data set [1] (setting [8]) is above 200 µM; in data set [2] (setting [9]), 22.12 ± 0.2 µM; in data set [3] (setting [10]), 12.1 ± 0.2 µM; in data set [4] (setting [11]), 29.06 ± 0.1 µM. The “trypanocidal activity NINOA strain (in words)” value in data set [1] (epimastigotes, NINOA strain) is “no biological activity”. Moreover, in data set [5] (J774.2 macrophage cells), the CC50 at 48 h is 47.35 ± 0.1 µM. Also, in data set [6], the “cytotoxicity (in words)” value was “high cytotoxicity”.
With `OCc1ccccc1` [Compound 1, benzyl alcohol], the half-maximal inhibitory concentration (IC50) in data set [1] (setting [8]) is above 200 µM; in data set [2] (setting [9]) it was 62.28 ± 0.2 µM; in data set [3] (setting [10]), above 200 µM; in data set [4] (setting [11]), 104 ± 0.3 µM. The compound also yielded a CC50 at 48 h in data set [5] (J774.2 macrophage cells) of 26.5 ± 2.1 µM.
`OCc1ccc2ccccc2c1` [Compound 5, 2-naphtalenemethanol]: the IC50 in data set [1] (setting [8]) is 119 µM; in data set [1] (epimastigotes, NINOA strain, MTT), 125 ± 3.2 µM; in data set [2] (setting [9]), above 200 µM; in data set [3] (setting [10]), 40.1 ± 4.7 µM; in data set [4] (setting [11]), 125 µM; in data set [4] (setting [13]), above 200 µM. Besides, in data set [5] (J774.2 macrophage cells), the CC50 at 48 h was above 200 µM.
`CC(C)=CCC/C(C)=C\CO` [Compound 13, nerol]: the IC50 was 58.3 ± 0.3 µM in data set [1] (Trypanosoma cruzi); 125 µM in data set [2] (setting [12]); 65.7 ± 3.1 µM in data set [2] (read-out: T. cruzi IC50 A1, epimastigotes, A1 strain, MTT); 106 ± 6 µM in data set [3] (Leishmania mexicana); above 200 µM in data set [4] (Leishmania mexicana). In addition, the CC50 at 48 h in data set [5] is above 200 µM.
As to `OC1CCCC1` [Compound 18, cyclopentyl alcohol], the IC50 in data set [1] (setting [8]) was above 200 µM; in data set [2] (setting [9]), 10.83 ± 0.1 µM; in data set [3] (setting [10]), 5.48 ± 0.1 µM; in data set [4] (setting [11]), 125.4 ± 0.2 µM. For the same compound, in data set [5] (J774.2 macrophage cells), the 50% cytotoxic concentration (CC50) at 48 h was 24.4 ± 3.2 µM.
Take `CC(C)[C@H]1CC[C@H](C)C[C@@H]1O` [Compound 14, l-(-)-menthol]: the IC50 in data set [1] (setting [8]) is 24.5 ± 0.7 µM; in data set [2] (setting [9]), above 200 µM; in data set [3] (setting [10]) it was 81.5 ± 4.7 µM; in data set [4] (setting [11]) it was above 200 µM. Moreover, the “trypanocidal activity A1 strain (in words)” value in data set [2] (epimastigotes, A1 strain) is “no biological activity”. The CC50 at 48 h in data set [5] (J774.2 macrophage cells) was above 200 µM. Besides, the “trypanocidal activity against the Tulahuén strain” value in data set [7] is “null trypanocidal activity”.
As to `CC1CS(=O)(=O)CCN1/N=C/c1ccc([N+](=O)[O-])o1` (stereo not shown) [Nfx, Nifurtimox, reference compound], the IC50 in data set [1] (setting [8]) turned out to be 19.3 ± 0.1 µM; in data set [2] (setting [9]) it was 7.09 ± 0.1 µM.
As for `CNC[C@H](O)[C@@H](O)[C@H](O)[C@H](O)CO.[O]=[Sb](=[O])[OH]` [Glu, Glucantime, reference compound], the IC50 in data set [3] (promastigotes, M379 strain, MTT) was above 200 µM; in data set [4] (setting [13]) it was 134 ± 4.3 µM. Further, the CC50 in data set [6] (read-out: Cytotoxicity CC50 J774.2, mouse macrophages J774.2, 48 h, MTT) was above 273 µM.
For the compound `Cc1ccc(CO)cc1` [Compound 2, 4-methylbenzyl alcohol], the IC50 in data set [1] (setting [8]) is 51.85 ± 0.01 µM; in data set [2] (setting [9]), 50.4 ± 1.8 µM; in data set [3] (setting [10]) it was above 200 µM; in data set [4] (setting [11]), above 200 µM. For the same compound, the CC50 at 48 h in data set [5] (J774.2 macrophage cells) was above 200 µM.
For `C=C(C)[C@H]1CC=C(CO)CC1` [Compound 15], the IC50 in data set [1] (setting [8]) was above 200 µM; in data set [2] (setting [9]) it was above 200 µM; in data set [3] (setting [10]), 34.4 ± 2.8 µM; in data set [4] (setting [11]) it was above 200 µM. In addition, the “trypanocidal activity A1 strain (in words)” value in data set [2] (epimastigotes, A1 strain) is “no biological activity”. This compound returned a CC50 at 48 h in data set [5] (J774.2 macrophage cells) above 200 µM.
In the case of `Oc1ccc(/C=C/c2cc(O)cc(O)c2)cc1` [resveratrol], the IC50 with T. cruzi (resveratrol) was 40 µM.
In the case of `Cc1ccccc1CO` [Compound 3, 2-methylbenzyl alcohol], the IC50 in data set [1] (setting [8]) was above 200 µM; in data set [2] (setting [9]) it was above 200 µM; in data set [3] (setting [10]), 14.2 ± 0.2 µM. Half-maximal cytotoxicity in data set [5] (J774.2 macrophage cells) (CC50 at 48 h) was put at 64.2 ± 0.2 µM. In addition, in data set [6], the “cytotoxicity (in words)” value is “high cytotoxicity”.
